{"source": "paper PMC8688847", "about": "“Implications of Membrane Binding by the Fe-S Cluster-Containing N-Terminal Domain in the Drosophila Mitochondrial Replicative DNA Helicase” (Frontiers in Genetics, 2021)", "key": {"[1]": {"target": "T1, FL Hs mtDNA helicase (TWINKLE) (Homo sapiens, UniProt Q96RR1)", "T1 construct": "gene TWNK; full-length, recombinant, Ni-NTA purified", "T1 sequence (Q96RR1 32-684)": "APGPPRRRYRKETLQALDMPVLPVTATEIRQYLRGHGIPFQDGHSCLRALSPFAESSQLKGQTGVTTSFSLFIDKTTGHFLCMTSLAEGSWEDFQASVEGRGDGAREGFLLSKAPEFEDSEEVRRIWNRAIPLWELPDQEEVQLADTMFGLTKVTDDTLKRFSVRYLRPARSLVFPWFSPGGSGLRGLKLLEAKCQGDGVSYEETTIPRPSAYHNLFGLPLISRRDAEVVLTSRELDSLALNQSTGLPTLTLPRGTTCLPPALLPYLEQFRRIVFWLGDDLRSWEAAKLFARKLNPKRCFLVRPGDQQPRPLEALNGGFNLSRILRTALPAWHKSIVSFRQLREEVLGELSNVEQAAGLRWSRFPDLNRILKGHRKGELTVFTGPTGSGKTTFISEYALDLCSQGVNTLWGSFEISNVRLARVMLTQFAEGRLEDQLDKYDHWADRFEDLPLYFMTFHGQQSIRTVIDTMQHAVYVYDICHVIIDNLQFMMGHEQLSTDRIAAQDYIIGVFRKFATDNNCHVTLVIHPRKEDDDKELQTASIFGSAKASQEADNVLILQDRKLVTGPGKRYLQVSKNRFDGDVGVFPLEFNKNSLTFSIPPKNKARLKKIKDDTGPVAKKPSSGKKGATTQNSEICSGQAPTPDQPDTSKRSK", "assay": "malachite green ATPase assay", "type": "biochemical", "conditions": "8 mM Mg acetate, pH 7.5, room temperature"}, "[2]": {"target": "T2, ΔN-helicase (P66) (Homo sapiens, UniProt Q96RR1)", "T2 construct": "gene TWNK; variant lacking the N-terminus, termed P66 in Ziebarth et al. 2007", "T2 sequence (Q96RR1 85-684 limits assumed)": "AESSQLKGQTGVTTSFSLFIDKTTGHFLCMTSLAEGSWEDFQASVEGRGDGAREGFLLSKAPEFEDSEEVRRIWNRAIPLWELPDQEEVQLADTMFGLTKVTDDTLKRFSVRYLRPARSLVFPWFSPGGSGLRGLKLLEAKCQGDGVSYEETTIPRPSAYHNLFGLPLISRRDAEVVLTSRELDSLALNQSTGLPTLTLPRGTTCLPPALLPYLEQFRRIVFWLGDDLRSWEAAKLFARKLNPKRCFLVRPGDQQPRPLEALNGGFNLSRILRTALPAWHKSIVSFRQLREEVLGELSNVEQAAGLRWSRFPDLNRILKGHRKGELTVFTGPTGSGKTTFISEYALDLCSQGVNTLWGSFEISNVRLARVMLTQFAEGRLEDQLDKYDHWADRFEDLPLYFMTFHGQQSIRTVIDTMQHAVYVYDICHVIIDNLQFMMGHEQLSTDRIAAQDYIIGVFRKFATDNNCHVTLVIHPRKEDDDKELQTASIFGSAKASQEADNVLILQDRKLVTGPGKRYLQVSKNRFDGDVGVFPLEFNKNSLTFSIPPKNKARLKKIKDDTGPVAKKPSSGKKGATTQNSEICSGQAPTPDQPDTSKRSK", "assay": "malachite green ATPase assay", "type": "biochemical", "conditions": "8 mM Mg acetate, pH 7.5, room temperature"}}}
{"smiles": "Nc1ncnc2c1ncn2[C@@H]1O[C@H](COP(=O)(O)OP(=O)(O)OP(=O)(O)O)[C@@H](O)[C@H]1O", "note": "[ATP]", "values": [{"measurement": "malachite green ATPase assay", "setting": "[1]", "result": "ATP hydrolysis of FL helicase was increased with added calf thymus DNA"}, {"measurement": "malachite green ATPase assay", "setting": "[2]", "result": "the ATPase activity of ΔN-helicase, termed P66"}]}
